Data as given in paper PMC12668138, “First-in-line 3D-printed intravaginal ring for nonhormonal contraception” (Research Square, 2025).
≈ marks a conversion by molar mass, not a printed value. Where “and” joins values, the source holds several entries; their conditions need not be identical. Identical values can stand only once. Like-named read-outs stand apart in the source and are kept apart here. Each block holds one molecule with its values, some of them ahead of it.

Key:
[1] = parameters: method as in PMID 26585883; conditions: cited from earlier work
[2] = system: Human vaginal epithelial cells, VK2/E6E7; experiment: In vitro cytotoxicity, MTS assay; type: cell-based; conditions: 24 hrs
Procedure: Human vaginal epithelial cells, VK2/E6E7 (ATCC® CRL-2616™), were used to evaluate GML’s effect on cell viability. VK2 cells were propagated in Gibco™ Keratinocyte SFM (1×) media (Cat# 17005042, ThermoFisher Scientific, MA, USA) supplemented with 0.1 ng/mL epidermal growth factor, 50 μg/mL bovine pituitary extract, 0.4 mM CaCl2, and 1% penicillin and streptomycin (P/S; Cat# 15140–122, Gibco). Cells were incubated with varying concentrations of GML for 24 hrs at 37°C. Cell viability was assessed using CellTiter 96® AQueous Non-Radioactive Cell Proliferation (MTS) Assay (Cat# G5421, Promega, WI, USA) per manufacturer instructions.

sperm [3] = experiment: Time-response sperm motility assay (single compounds, 1:1 dilution); type: cell-based, human
Procedure: A time-response experiment was conducted to assess the impact of contraceptive compounds on sperm motility at various time points following incubation. Sperm samples were incubated with varying concentrations of LA or GML (1:1 dilution ratio) for 30 secs, 10, 30, 60, and 120 minutes. Concentrations of GML were selected based on the critical micelle concentration (CMC) of 16.4 μg/mL.[43] Each sample was examined under a phase-contrast microscope, and sperm motility was assessed manually.

sperm [4] = experiment: Sander-Cramer assay, 1:6 semen:compound, with recovery; type: cell-based, human; conditions: for MEC after recovery ± SD: 1:6 semen:compound, diluted with 1 mL inhibitor-free media, 60 mins; for MEC ± SD: 30 sec exposure, 1:6 dilution ratio (50 μL semen + 250 μL compound)
Procedure: (§1) Semen samples were collected from consented healthy male donors by masturbation after 2–5 days of sexual abstinence. The protocol was approved by the Eastern Virginia Medical School’s Institutional Review Board (IRB) at the Macon & Joan Brock Virginia Health Sciences, Old Dominion University. Semen analysis was performed according to WHO guidelines.[44]
(§2) The highest spermicidal dilution and minimum effective concentration (MEC) for the test compounds were determined using the modified Sander-Cramer (SCr) assay.[45] […] Briefly, 250 μL of test compounds were incubated with 50 μL of semen for 30 sec at room temperature (RT). During the incubation period, each sample was examined under a phase-contrast microscope (E600 Nikon Eclipse, Melville, MY) for the presence of motile sperm. To evaluate the protective effect of seminal plasma, 50 μL of test compounds were incubated with 50 μL of semen (1:1 dilution ratio) for 30 sec at room temperature (RT). If any motile sperm (i.e. progressive, twitching, etc.) were found within 30 seconds, then the dilution was recorded as ‘Failed’. If no motile sperm were found, the dilution was considered as ‘Pass.’ The results from 4–6 independent experiments were combined, and the highest spermicidal dilution and MEC were calculated as MEC=initialconcentration/highestspermicidaldilution and presented as Mean ± SE.
(§3) To see whether the sperm immobilizing effect of the compounds was reversible, 1 mL of warmed Ham’s F-10 media (Millipore Sigma, MA, USA) supplemented with 1% Human Serum Albumin (HSA) (Millipore Sigma, MA, USA) was added to each sample to further dilute the compound concentration and assess the reversibility of the sperm immobilization effect. Sperm were incubated for an additional 60 mins at 37°C. After this sperm “recovery” period, motility was re-evaluated with manual counting and calculated as: %SpermMotility=TotalMotileSperm/TotalMotile+immobileSperm*100.

sperm [5] = experiment: Modified Sander-Cramer assay, 1:1 semen:compound, with recovery; type: cell-based, human; conditions: for MEC: 30 sec exposure, 1:1 dilution ratio (50 μL semen + 50 μL compound)
Procedure: as §1, §2, §3

[6] = Saturation solubility in relevant solvents and release media; type: physicochemical; conditions: thermodynamic from solid, read-out: GML Saturation Solubility
Procedure: Approximately 20 mg samples of GML were weighed into microcentrifuge tubes and 100 μL of solvent (n=3) was subsequently added. Samples were vortexed and assessed visually to determine dissolution progress. As dissolution occurred, an additional 20 mg of GML was added until complete saturation was reached. All samples were then stored, protected from light, overnight to confirm complete saturation. […] The supernatant samples were diluted with MeOH and drug concentration was subsequently analyzed via LC-MS as described above.

[7] = Lactic acid titration of simulated vaginal and seminal fluids (pH); type: physicochemical; conditions: for pH reached: same LA concentration (24 mM)
Procedure: The amount of lactic acid necessary for contraceptive efficacy was estimated by measuring solution pH. Simulated vaginal and seminal fluids, with physiologically-representative buffer capacities, were prepared as previously described by Rastogi et al.[43] Simulated vaginal fluid (SVF) was mixed with seminal fluid simulant (SFS) in a 1:5 ratio to represent potential fluid volumes during intercourse.

SMILES: CCCCCCCCCCCC(=O)OCC(O)CO (stereo not drawn) [GML, glycerol monolaurate]
Critical micelle concentration (CMC) [1]: 16.4 µg/mL | Concentrations considered non-cytotoxic [2]: ≤ 20 µg/mL | Concentrations significantly decreasing cell viability [2]: ≥ 200 µg/mL | Time to immobilize all sperm (sperm [3]; at 20 mg/mL, 1:1 dilution ratio): 10 min | Concentration completely immobilizing sperm (sperm [3]; incubation 30–120 mins, 1:1 dilution ratio): 2 mg/mL | Concentration above which compound visibly precipitated (sperm [4]; 0.9% saline): above 0.2 mg/mL | MEC after recovery ± SD (sperm [4]): 1.7 ± 0.9 mg/mL and 1.7 ± 0.9^γ mg/mL | MEC ± SD (sperm [4]): 45 ± 5.5 mg/mL | MEC after recovery (sperm [5]; 1:1 semen:compound, diluted with 1 mL inhibitor-free media, 60 mins): 1.7 ± 0.9 mg/mL | MEC (sperm [5]): 55 ± 5.8 mg/mL | solubility at 24 h ([6]; acetone, organic solvent or mixture): 255.2 ± 1.74 mg/mL (≈ 930 mM) | solubility at 24 h ([6]; ethanol, organic solvent or mixture, EtOH): 271 ± 18 mg/mL (≈ 988 mM) | solubility at 24 h ([6]; methanol, organic solvent or mixture, MeOH): 278 ± 45.2 mg/mL (≈ 1010 mM) | solubility at 24 h ([6]; simulated vaginal fluid with 2% Solutol, pH 4.2, aqueous with cosolvent or surfactant or cyclodextrin, SVF (w/ 2% solutol)): 3.25 ± 0.45 mg/mL (≈ 11.8 mM) | solubility at 24 h ([6]; water): 4.48 ± 0.12 mg/mL (≈ 16.3 mM)

LA concentration at which mixture pH reached 4.2 ([7]; 1:5 mixture of SVF and SFS): 24 mM and 2.16 mg/mL | pH reached ([7]; SSF alone): 3.37 | pH reached ([7]; SVF alone): 3.67
SMILES: CC(O)C(=O)O (stereo not drawn) [LA, lactic acid]
MEC (sperm [3]; following 10 mins, persisting during 120 mins, 1:1 dilution ratio): 10 mg/mL | Concentration inducing immediate sperm immobilization (sperm [3]; summary statement): 10 mg/mL | MEC (sperm [3]; within 30 sec, 1:1 dilution ratio): 20 mg/mL | MEC after recovery ± SD (sperm [4]): 9 mg/mL | MEC ± SD (sperm [4]): 9 mg/mL | MEC (sperm [5]): 18 mg/mL
